Test results as given in patent EP0080779B1, “3-Benzazepines as alpha-2 antagonists” (SMITHKLINE BECKMAN CORPORATION, priority 1981, dated 1983).

Legend:
alpha2 adrenoceptor = test: prejunctional alpha2 antagonist activity, isolated superfused guinea pig left atrium (shift of the clonidine concentration-response curve); format: cell-based
Protocol: Briefly, the heart is removed from a pentobarbital-anesthetized male guinea pig. The left atrium is removed, dissected free of extraneous tissue and mounted in a 2 ml. superfusion chamber. The tissue is paced at 60 pulse/minute and the sympathetic nerves excited at 6 minute intervals by field stimulation. The response to nerve stimulation is measured as the difference in contractile force between the basal contraction and peak contraction following a nerve stimulation. A concentration-response curve for clonidine (alpha2 agonist) is prepared by administering an increasing concentration of clonidine following each successive stimulation. The tissue is then superfused with the alpha2 antagonist to be tested for thirty minutes and the clonidine concentration- effect curve was repeated in the presence of antagonist. The receptor dissociation constant of the antagonist (KB) is defined as the antagonist concentration required to shift the log concentration-response curve of the agonist to the right by a factor of 2.

[1] = tested on: normotensive and hypertensive rats; test: antihypertensive activity in conscious cannulated rats, i.v. administration; format: in vivo
Protocol: (§1) Cannulas are run intradermally so as to be externalized in the dorso-sacral area of either side and kept in place by wound clips. The rats are allowed to regain consciousness after being placed in a small animal restrainer. The arterial cannula is connected to a pressure transducer for constant blood pressure and heart rate monitoring. Drugs are administered either orally via gavage or i.v. via the femoral vein cannula at a rate of 0.06 ml./minute.
(§2) The above test is conducted on both normotensive and hypertensive rats. DOCA Salt hypertensive rats are prepared from male uninephrectomized Sprague-Dawley rats. The rats, approximately six weeks of age, are lightly anesthetized with ether and subcutaneously implanted with a 25 mg. deoxycorticosterone acetate pellet in the left dorso-sacral area. Six days later a second pellet is implanted in the right dorso-sacral area. These rats are fed a normal laboratory diet, but are given 1% saline solution to drink in place of water. The rats are kept on the saline drinking water for 22-24 days.
The following table sets forth the effect of 6-chloro-2,3,4,5-tetrahydro-3-methyl-1 H-3-benzazepine on blood pressure after i.v. administration to both normotensive and hypertensive rats.

[2] = tested on: conscious normotensive rabbits; test: rabbit intraocular pressure determination, compound given systemically (ear vein infusion); format: in vivo; details: given systemically to rabbits; result in words
[3] = tested on: DOCA-salt hypertensive rat; test: antihypertensive activity in DOCA-salt hypertensive rat, oral administration; format: in vivo
Protocol: as §1, §2
The effect of the oral administration of 6-chloro-2,3,4,5-tetrahydro-3-methyl-1H-3-benzazepine on blood pressure in the DOCA-salt hypertensive rat was also determined.

[4] = tested on: rabbit intraocular pressure; test: normal rabbit intraocular pressure determination, instillation into the eye; format: in vivo; details: instilled into the rabbit eye; at one hour; relative to the untreated eye
Protocol: The measurement of intraocular pressure depends on subjecting the eye to a force that indents or flattens it. Either the effect of a particular force or the force for a given effect is measured. The specific procedure employed for the compounds of this invention is a normal rabbit intraocular pressure determination. A solution of 0.5% proparacaine hydrochloride diluted 1:10 with physiological saline is instilled into the eye of a rabbit. The lids are gently massaged over the cornea to insure good distribution of the solution. The eye is exposed by separating the lids and the tip of a probe is slowly placed on the cornea at the point where the curvature of the cornea is the greatest, i.e., on the optic axis. Employing an Alcon Applanation Pneumatonograph, the intraocular pressure is determined in each eye until a stable reading is obtained. West, C., Capelta, J. and Kaufman, H., Am. J. Ophthalmol. 74:505 (1972).
Nine rabbits are used in each study, three animals for each dose in most circumstances. […] Immediately following the initial reading, the formulations to be tested, comprising concentrations of 0.01 to 10% of active ingredient, are instilled and pressure readings are taken at 0.5, 1, 2, 3, 4, and 6 hours post-instillation. The intraocular pressure is determined from the value recorded on the pneumotonograph chart paper. A mean intraocular pressure value is calculated at each time point. […]

| Compound | alpha2 antagonist activity relative to the 6-chloro derivative (alpha2 adrenoceptor; comparison of KB values) | Kb (alpha2 adrenoceptor; isolated perfused guinea pig left atrium, antagonist concentration shifting the clonidine curve to the right by a factor of 2) | Diastolic Blood Pressure Decrease BP ([1]; DOCA Salt Hypertensive rats, n = 4, 0.5 mg/kg I.V., Pre Drug 135 ± 5 MMHg) | Diastolic Blood Pressure Decrease BP ([1]; DOCA Salt Hypertensive rats, n = 4, 1.0 mg/kg I.V., Pre Drug 135 ± 5 MMHg) | Diastolic Blood Pressure Decrease BP ([1]; Normotensive (control) (Sprague-Dawley) rats, n = 4, 0.5 mg/kg I.V., Pre Drug 95 ± 7 MMHg) | Diastolic Blood Pressure Decrease BP ([1]; Normotensive (control) (Sprague-Dawley) rats, n = 4, 1.0 mg/kg I.V., Pre Drug 95 ± 7 MMHg) | Diastolic Blood Pressure Decrease BP ([1]; Normotensive (control) (Wistar-Kyoto) rats, n = 4, 0.5 mg/kg I.V., Pre Drug 115 ± 3 MMHg) | Diastolic Blood Pressure Decrease BP ([1]; Normotensive (control) (Wistar-Kyoto) rats, n = 4, 1.0 mg/kg I.V., Pre Drug 115 ± 3 MMHg) | Diastolic Blood Pressure Decrease BP ([1]; Spontaneously Hypertensive rats, n = 7, 0.5 mg/kg I.V., Pre Drug 167 ± 3 MMHg) | Diastolic Blood Pressure Decrease BP ([1]; Spontaneously Hypertensive rats, n = 7, 1.0 mg/kg I.V., Pre Drug 167 ± 3 MMHg) | effect on systemic blood pressure [2] | Δ BP ([3]; 2 mg/kg PO) | Mean Arterial Pressure Post-Drug ([3]; 2 mg/kg PO, Pre-Drug 148 ± 11) | Δ BP ([3]; 5 mg/kg PO) | Mean Arterial Pressure Post-Drug ([3]; 5 mg/kg PO, Pre-Drug 160 ± 7) | Δ BP ([3]; 10 mg/kg PO) | Mean Arterial Pressure Post-Drug ([3]; 10 mg/kg PO, Pre-Drug 167 ± 8) | decrease of intraocular pressure [4] |
| --- | --- | --- | --- | --- | --- | --- | --- | --- | --- | --- | --- | --- | --- | --- | --- | --- | --- | --- |
| CN1CCc2ccc(Cl)cc2CC1 [7-chloro-2,3,4,5-tetrahydro-3-methyl-1H-3-benzazepine] | about one tenth | 0.15 µM |  |  |  |  |  |  |  |  |  |  |  |  |  |  |  |  |
| CN1CCc2cccc(Cl)c2CC1 [6-chloro-2,3,4,5-tetrahydro-3-methyl-1H-3-benzazepine] |  |  | 27 ± 3 MMHg | 33 ± 4 MMHg | 6 ± 2 MMHg | 13 ± 1 MMHg | 7 ± 2 MMHg | 10 ± 2 MMHg | 33 ± 7 MMHg | 46 ± 2 MMHg | no significant effect | 17 ± 3 MM Hg | 131 ± 12 | 34 ± 4 MM Hg | 127 ± 5 | 68 ± 8 MM Hg | 99 ± 4 | 3.5 mm of mercury |
